Reference: ChEMBL document CHEMBL4819022, “Discovery of JNJ-63576253: A Clinical Stage Androgen Receptor Antagonist for F877L Mutant and Wild-Type Castration-Resistant Prostate Cancer (mCRPC)” (J Med Chem, 2021)
The source made the active and inactive calls. No cut-off for these calls is given here.

Columns and labels:
[1] = system: T1, Androgen receptor (Homo sapiens), P10275 [F877L]; assay: Antagonist activity at AR F877L mutant (unknown origin) transfected in human LNCAP cells cotransfected with ARE-LUC incubated for 20 to 24 hrs in presence of AR agonist R1881 by steady-glo luciferase reporter gene assay relative to control; format: cell-based; settings: filed as antagonist, time 20-24 hrs
T1 sequence (whole entry): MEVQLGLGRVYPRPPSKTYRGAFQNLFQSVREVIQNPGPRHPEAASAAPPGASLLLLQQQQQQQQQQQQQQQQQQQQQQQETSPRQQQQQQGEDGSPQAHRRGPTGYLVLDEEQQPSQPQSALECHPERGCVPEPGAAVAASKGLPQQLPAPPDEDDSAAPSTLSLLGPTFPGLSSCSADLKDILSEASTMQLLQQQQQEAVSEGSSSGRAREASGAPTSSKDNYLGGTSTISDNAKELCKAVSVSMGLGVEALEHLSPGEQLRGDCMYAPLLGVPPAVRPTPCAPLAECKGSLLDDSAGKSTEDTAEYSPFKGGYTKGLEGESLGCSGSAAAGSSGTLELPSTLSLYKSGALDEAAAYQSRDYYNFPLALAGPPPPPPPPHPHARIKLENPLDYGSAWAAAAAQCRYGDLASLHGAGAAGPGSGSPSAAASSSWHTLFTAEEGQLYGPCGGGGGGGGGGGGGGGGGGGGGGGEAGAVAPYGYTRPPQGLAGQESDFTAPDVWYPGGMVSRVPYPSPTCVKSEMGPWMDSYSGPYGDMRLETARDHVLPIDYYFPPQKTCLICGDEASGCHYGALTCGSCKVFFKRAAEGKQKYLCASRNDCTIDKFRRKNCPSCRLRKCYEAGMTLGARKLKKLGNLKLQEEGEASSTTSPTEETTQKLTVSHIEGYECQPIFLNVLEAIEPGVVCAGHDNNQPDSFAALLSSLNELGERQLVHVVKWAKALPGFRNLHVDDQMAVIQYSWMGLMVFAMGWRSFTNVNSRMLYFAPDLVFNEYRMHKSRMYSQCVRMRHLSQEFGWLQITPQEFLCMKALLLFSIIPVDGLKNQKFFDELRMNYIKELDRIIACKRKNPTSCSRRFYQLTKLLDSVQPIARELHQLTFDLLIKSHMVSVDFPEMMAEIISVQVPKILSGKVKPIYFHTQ

[2] = Clearance in CD1 mouse at 2 mg/kg, iv; format: ADME, organism-based; settings: in vivo
VCaP = assay: Antiproliferative activity against human VCaP cells expressing wild-type androgen receptor assessed as reduction in cell viability incubated for 5 days in presence of R1881 by CellTiter-glo assay; format: functional, cell-based; settings: 120 h
[3] = Apparent passive permeability from apical to basolateral side in MDCK-MDR1 cells in presence P-gp inhibitor; format: ADME, cell-based, Canis lupus familiaris; settings: dog, MDCK-MDR1, with P-gp inhibitor (name and concentration not stated)
[4] = system: liver microsomes (Homo sapiens); assay: Half life in human liver microsomes
[5] = AUC(0 to last) in CD1 mouse at 10 mg/kg, po; format: ADME, organism-based; parameters: route oral, time 0 - last, dose 10 mg/kg; settings: CD1, mouse, in vivo
[6] = Oral bioavailability in CD1 mouse at 10 mg/kg; format: ADME, organism-based; settings: CD1, mouse, in vivo
[7] = Cmax in CD1 mouse at 10 mg/kg, po; format: ADME, organism-based; parameters: route oral, dose 10 mg/kg; settings: in vivo
[8] = Half life in CD1 mouse at 2 mg/kg, iv; format: ADME, organism-based; settings: in vivo
[9] = Volume of distribution at steady state in CD1 mouse at 2 mg/kg, iv; format: ADME, organism-based; settings: in vivo, read-out: Vdss
[10] = Drug metabolism in dog liver microsomes assessed as unchanged parent compound at 10 uM incubated for 60 mins in presence of glutathione and NADPH by LC-MS/MS analysis; format: ADME, Canis lupus familiaris, Microsome; settings: read-out: Drug metabolism
[11] = molecular target: T2, Androgen receptor (Rattus norvegicus) (UniProt P15207); settings: Sprague-Dawley, dose 30.0 mg/kg, time 10.0 day
T2 sequence (whole entry): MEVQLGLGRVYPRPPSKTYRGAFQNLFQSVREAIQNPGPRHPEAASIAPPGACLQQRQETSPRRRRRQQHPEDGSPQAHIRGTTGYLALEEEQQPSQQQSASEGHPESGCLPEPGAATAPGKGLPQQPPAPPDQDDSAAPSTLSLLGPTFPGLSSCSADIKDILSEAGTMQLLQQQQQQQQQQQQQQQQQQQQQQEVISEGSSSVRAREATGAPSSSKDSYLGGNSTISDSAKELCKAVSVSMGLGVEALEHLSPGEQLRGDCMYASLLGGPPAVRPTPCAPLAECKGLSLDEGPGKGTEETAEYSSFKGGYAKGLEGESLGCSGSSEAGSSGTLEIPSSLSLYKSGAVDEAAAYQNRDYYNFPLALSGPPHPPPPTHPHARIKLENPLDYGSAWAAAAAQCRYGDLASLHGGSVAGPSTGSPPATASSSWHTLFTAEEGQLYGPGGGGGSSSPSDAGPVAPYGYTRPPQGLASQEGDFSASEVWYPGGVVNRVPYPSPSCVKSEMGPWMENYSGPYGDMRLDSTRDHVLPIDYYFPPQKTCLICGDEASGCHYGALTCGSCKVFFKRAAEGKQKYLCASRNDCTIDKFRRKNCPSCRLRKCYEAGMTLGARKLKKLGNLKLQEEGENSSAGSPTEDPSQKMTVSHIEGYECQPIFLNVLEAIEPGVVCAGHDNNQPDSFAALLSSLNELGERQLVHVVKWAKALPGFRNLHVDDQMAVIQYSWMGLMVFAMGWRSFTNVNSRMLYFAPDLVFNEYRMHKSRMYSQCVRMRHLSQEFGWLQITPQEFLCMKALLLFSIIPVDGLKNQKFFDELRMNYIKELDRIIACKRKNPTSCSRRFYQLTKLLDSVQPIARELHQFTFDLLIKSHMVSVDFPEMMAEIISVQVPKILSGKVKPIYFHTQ

[12] = molecular target: T2, Androgen receptor (Rattus norvegicus); settings: Sprague-Dawley, dose 30.0 mg/kg, time 10.0 day; remark: listed apart in the source
[13] = molecular target: T2, Androgen receptor (Rattus norvegicus); settings: Sprague-Dawley, dose 30.0 mg/kg, time 10.0 day; remark: listed apart in the source
[14] = molecular target: T2, Androgen receptor (Rattus norvegicus); settings: Sprague-Dawley, dose 30.0 mg/kg, time 10.0 day; remark: listed apart in the source
[15] = molecular target: T2, Androgen receptor (Rattus norvegicus); settings: Sprague-Dawley, dose 30.0 mg/kg, time 10.0 day; remark: listed apart in the source
[16] = Drug metabolism in dog liver microsomes assessed as unchanged parent compound at 10 uM incubated for 60 mins in presence of glutathione by LC-MS/MS analysis; format: ADME, Canis lupus familiaris, Microsome; settings: read-out: Drug metabolism
Androgen receptor = Androgen receptor (Homo sapiens, UniProt P10275, F877L)
[17] = Drug concentration in SCID mouse plasma xenografted with human LNCaP cells harboring AR F877L mutant at 30 mg/kg, po QD administered via gavage for 28 days; format: ADME, organism-based; settings: time 28 day, read-out: Ct
LNCaP = assay: Antitumor activity against human LNCaP cells harboring AR F877L mutant xenografted in SCID mouse assessed as tumor growth inhibition at 30 mg/kg, po QD administered via gavage for 28 days and measured twice weekly relative to control; format: functional; settings: time 28 day, read-out: TGI

| Imax [1] | clearance [2] | IC50 (VCaP) | Papp A→B [3] | half-life [4] | AUC(0-t) [5] | bioavailability [6] | Cmax [7] | half-life [8] | Vd [9] | remaining at 1 h, 10 µM [10] | inhibition [11] | inhibition [12] | inhibition [13] | inhibition [14] | inhibition [15] | remaining at 1 h, 10 µM [16] | EC50 (Androgen receptor) | concentration at […] [17] | SMILES | inhibition in vivo at 30 mg/kg (LNCaP) |
| --- | --- | --- | --- | --- | --- | --- | --- | --- | --- | --- | --- | --- | --- | --- | --- | --- | --- | --- | --- | --- |
| > 90% | 1.16 L/h/kg | 0.264 µM | 33.8 nm/s | > 3 h | 7.8 µg·h/mL | 92% | 1.88 µM | 3 h | 4.35 L/kg |  |  |  |  |  |  |  |  |  | Cc1cc(N2C(=O)C3(CCC3)N(c3ccc(OC4CCNCC4)nc3)C2=S)cnc1C#N |  |
| > 90% | 1.52 L/h/kg | 0.25 µM | 115 nm/s | > 3 h | 6 µg·h/mL | 118% | 1.88 µM | 4.1 h | 6.92 L/kg |  | Active | Active | Active | Active | Active |  |  |  | N#Cc1ncc(N2C(=O)C3(CCC3)N(c3ccc(OC4CCNCC4)nc3)C2=S)cc1Cl |  |
| > 90% | 0.414 L/h/kg | 0.263 µM |  | 1.9 h | 20.1 µg·h/mL | 87% | 2.8 µM | 7.8 h | 3.7 L/kg |  | Active | Active | Active | Active | Active |  | 0.649 µM |  | COc1cc(N2C(=O)C3(CCC3)N(c3ccc(OC4CCN(C)CC4)cc3)C2=S)cnc1C#N |  |
| > 90% | 1.6 L/h/kg | 0.503 µM | 122 nm/s | > 3 h | 4.6 µg·h/mL | 50% | 0.78 µM | 3.7 h | 8.47 L/kg |  | Active | Active | Active | Active | Active |  | 0.045 µM |  | N#Cc1ncc(N2C(=O)C3(CCC3)N(c3ccc(OC4CCNCC4)cc3)C2=S)cc1Cl |  |
| > 90% | 0.9 L/h/kg | 0.265 µM | 56.2 nm/s | > 3 h | 4.9 µg·h/mL | 45% | 0.66 µM | 5.99 h | 6.11 L/kg | 98.8% | Active | Active | Active | Active | Active | 100% |  | 1.75 µg/mL | N#Cc1ncc(N2C(=O)C3(CCC3)N(c3ccc(OC4CCNCC4)nc3)C2=S)cc1C(F)(F)F [TRC-253] | 87% |

Continued, compound first:

| SMILES | Imax [1] | clearance [2] | IC50 (VCaP) | Papp A→B [3] | half-life [4] | AUC(0-t) [5] | bioavailability [6] | Cmax [7] | half-life [8] | Vd [9] | remaining at 1 h, 10 µM [10] | inhibition [11] | inhibition [12] | inhibition [13] | inhibition [14] | inhibition [15] | remaining at 1 h, 10 µM [16] | EC50 (Androgen receptor) | concentration at […] [17] | inhibition in vivo at 30 mg/kg (LNCaP) |
| --- | --- | --- | --- | --- | --- | --- | --- | --- | --- | --- | --- | --- | --- | --- | --- | --- | --- | --- | --- | --- |
| N#Cc1ncc(N2C(=O)C3(CCC3)N(c3cnc(OC4CCNCC4)nc3)C2=S)cc1C(F)(F)F | 67% |  |  |  |  |  |  |  |  |  |  |  |  |  |  |  |  |  |  |  |
| N#Cc1ncc(N2C(=O)C3(CCC3)N(c3ccc(O)cc3)C2=S)cc1C(F)(F)F |  |  |  |  |  |  |  |  |  |  | 91.9% |  |  |  |  |  |  |  |  |  |
| N#Cc1ncc(N2C(=O)C3(CCC3)N(c3ccc(CN4CCNCC4)cc3)C2=S)cc1C(F)(F)F | > 90% | 1.09 L/h/kg | 2.78 µM | 63.1 nm/s | > 3 h | 8.7 µg·h/mL | 97% | 0.84 µM | 12.1 h | 16.8 L/kg |  | inactive | inactive | inactive | inactive | inactive |  |  |  |  |
| N#Cc1ncc(N2C(=O)C3(CCC3)N(c3ccc(O)nc3)C2=S)cc1C(F)(F)F | > 90% |  |  |  |  |  |  |  |  |  | 100% |  |  |  |  |  | 100% |  |  |  |
| CN1CCC(Oc2ccc(N3C(=S)N(c4cnc(C#N)c(C(F)(F)F)c4)C(=O)C34CCC4)cn2)CC1 | > 90% | 0.488 L/h/kg | 0.394 µM | 162 nm/s | 2.88 h | 10.9 µg·h/mL | 56% | 1.3 µM | 12.5 h | 7.69 L/kg |  |  |  |  |  |  |  |  |  |  |
| CN1CCC(Oc2ncc(N3C(=S)N(c4cnc(C#N)c(C(F)(F)F)c4)C(=O)C34CCC4)cn2)CC1 | > 90% |  |  |  |  |  |  |  |  |  |  |  |  |  |  |  |  |  |  |  |
| CNC(=O)c1ccc(N2C(=S)N(c3ccc(C#N)c(C(F)(F)F)c3)C(=O)C2(C)C)cc1F [ENZALUTAMIDE] |  |  | 0.149 µM |  |  |  |  |  |  |  |  | Active | Active | Active | Active | Active |  |  |  |  |
